From patent US10570463B2, “Nucleic acid modifying agents and uses thereof” (BIOTIUM, INC., priority 2014, dated 2020)
Entries after “also recorded” stand apart in the source; their conditions may differ.

Assays:
[1] = test system: Staphylococcus epidermidis; test: Viability PCR (dCt, 16S rDNA) after dye treatment and photolysis, cultured Staphylococcus epidermidis; assay type: cell-based; settings: 50 uM dye, 3D; for dCt, modification of DNA in live cells: live S. epidermidis, 470 nm light 15 min, FIG. 1, 2B
Protocol: Escherichia coli, Salmonella enterica, and Bacillus subtilis were cultured in tryptic soy broth (TSB). Staphylococcus epidermidis was cultured in nutrient broth (NB). Bacteria were cultured overnight at 37° C. The following day, the absorbance of the cultures at 600 nm was measured and the cultures were diluted to OD600=1.0 in growth media. Bacteria cultures were pipetted into 1.5 mL screw-top tubes at 400 uL per tube. For dead cell samples, tubes were placed in a 95° C. heat block for 5 minutes, and then allowed to return to room temperature. PMA products (cat #40013 and 40019, Biotium) and selected compounds of the disclosure (104.1, 014, or 020, where indicated) were diluted to 2.5 mM in water, and then 8 uL was added to the bacterial culture for a final concentration of 50 uM. Cultures were incubated on a rocker in the dark at room temperature for 10 minutes, and then exposed to 470 nm wavelength light in the PMA-Lite LED device for 15 minutes. Samples were centrifuged at 5000×g for 10 minutes and the supernatant was aspirated off. DNA was then purified from bacterial pellets using the Qiagen Blood and Tissue kit and eluted in 100 uL elution buffer.
PCR was performed using the universal primers DG74 and RW01 which amplify a 370-bp region of the 16S rDNA. Forward Primer DG74 sequence: 5′-AGG AGG TGA TCC AAC CGC A-3′. Reverse Primer RW01 sequence: 5′-AACTGGAGGAAGGTGGGGAT-3′. The following PCR mix was prepared for each sample: 12.5 uL Fast EvaGreen Master Mix (Biotium), 1 uL 5 uM primer mix, 9.5 uL water, and 2 uL isolated bacterial DNA. […] 25 sec, 72° C., acquiring fluorescence after this step. Using the Rotor-Gene Q software, normalized fluorescence and Ct values were calculated. The change in Ct (dCt) caused by a dye was calculated by subtracting the Ct of the untreated bacteria from the Ct of the dye-treated bacteria.
(§1) Live Staphylococcus epidermidis (a gram-positive bacteria) was either left untreated, treated with one of two versions of commercial PMA products (cat #40013 and 40019, Biotium), or treated with a compound of the present disclosure (compound 104.1, 014, or 020). Viability PCR was performed and the effect of each dye was measured by determining the dCt. The dCt was calculated by subtracting the Ct of untreated sample from dye-treated sample. […]
as §1, with “Live or dead Bacillus subtilis (FIG. 2A) or” for “Live”, “(FIG. 2B) were” for “(a gram-positive bacteria) was”, “cat #40019,” for “40019,”, “Compound 104.1.” for “a compound of the present disclosure (compound 104.1, 014, or 020).”

[2] = test system: swabbed S. epidermidis; test: Viability PCR (dCt) in Staphylococcus epidermidis collected by swabbing; assay type: cell-based; settings: live and heat-killed S. epidermidis dried on plastic and swabbed; FIG. 5
Protocol: As in Example 16, Staphylococcus epidermidis was cultured in nutrient broth (NB) overnight at 37° C. The following day, the absorbance of the cultures at 600 nm was measured and the cultures were diluted to OD600=1.0 in growth media. For dead cell samples, bacteria were placed in a 95° C. heat block for 5 minutes, and then allowed to return to room temperature. 1200 uL of live or dead bacteria were spread separately onto sterile plastic petri dishes and air-dried for four hours. To mimic a common method of bacterial sample collection, a sterile cotton swab was moistened with NB, swabbed on the plate and swirled in a tube containing 1200 uL NB. This process was repeated 3 times each for live and dead bacteria, until most of the bacteria from the plate had been transferred into the media. 400 uL of swabbed bacteria was pipetted into tubes, and either left untreated, treated with PMA dye, or treated with Compound 014, as described in Example 16. Viability PCR was performed and the effect of each dye was measured by determining the dCt. The dCt was calculated by subtracting the Ct of untreated sample from dye-treated sample. […] The dCt values are shown above each bar.

[3] = test system: Salmonella enterica; test: Viability PCR (dCt, 16S rDNA) after dye treatment and photolysis, cultured Salmonella enterica; assay type: cell-based; settings: 50 uM dye, compared with PMA, FIG. 3B
Protocol: (§2) Escherichia coli, Salmonella enterica, and Bacillus subtilis were cultured in tryptic soy broth (TSB). Staphylococcus epidermidis was cultured in nutrient broth (NB). Bacteria were cultured overnight at 37° C. The following day, the absorbance of the cultures at 600 nm was measured and the cultures were diluted to OD600=1.0 in growth media. Bacteria cultures were pipetted into 1.5 mL screw-top tubes at 400 uL per tube. For dead cell samples, tubes were placed in a 95° C. heat block for 5 minutes, and then allowed to return to room temperature. […]
(§3) PCR was performed using the universal primers DG74 and RW01 which amplify a 370-bp region of the 16S rDNA. […] 25 sec, 72° C., acquiring fluorescence after this step. Using the Rotor-Gene Q software, normalized fluorescence and Ct values were calculated. The change in Ct (dCt) caused by a dye was calculated by subtracting the Ct of the untreated bacteria from the Ct of the dye-treated bacteria.
(§4) Live or dead Escherichia coli (FIG. 3A), Salmonella enterica (FIG. 3B), Bacillus subtilis (FIG. 3C) or Staphylococcus epidermidis (FIG. 3D) were either left untreated, treated with PMA, or treated with Compound 014. Viability PCR was performed and the effect of each dye was measured by determining the dCt. The dCt was calculated by subtracting the Ct of untreated sample from dye-treated sample. […]

[4] = test system: Bacillus subtilis; test: Viability PCR (dCt, 16S rDNA) after dye treatment and photolysis, cultured Bacillus subtilis; assay type: cell-based; settings: 50 uM dye, compared with PMA, FIG. 2A, 3C
Protocol: as §2, §3
as §1, with “Live or dead Bacillus subtilis (FIG. 2A) or” for “Live”, “(FIG. 2B) were” for “(a gram-positive bacteria) was”, “cat #40019,” for “40019,”, “Compound 104.1.” for “a compound of the present disclosure (compound 104.1, 014, or 020).”

[5] = test system: Escherichia coli; test: Viability PCR (dCt, 16S rDNA) after dye treatment and photolysis, cultured Escherichia coli; assay type: cell-based; settings: 50 uM dye, compared with PMA, FIG. 3A
Protocol: as §2, §3, §4

[6] = test system: Jurkat cells; test: Viability staining of live and heat-killed Jurkat cells, flow cytometry; assay type: cell-based, human; settings: 1 uM
Protocol: Jurkat cells were maintained in RPMI media supplemented with 10% fetal bovine serum, 10 mM HEPES, and 1 mM sodium pyruvate. Cells were counted and diluted to 1.0×10^6 cells/mL in growth media. Cells were pelleted by centrifugation at 350×g and resuspended in PBS. Half of the cells were heat-killed by incubation in a 56° C. water bath for 45 minutes. After they had cooled to room temperature, live and dead cells were combined in a 1:1 ratio, pelleted and washed once with PBS, and resuspended in PBS at 1.0×10^6 cells/mL. Aliquots of 1 mL were pipetted into 1.5 mL microcentrifuge tubes. Working in the dark, PMA and compound 104.1 were diluted to 1 mM in water. 1 uL of the indicated compound was added to 1 mL of cells for a final concentration of 1 uM. Cells were incubated in the dark, rocking, for 10 minutes, then exposed to light in the PMA-Lite for 15 minutes. Cells were transferred to FACS tubes and pelleted. Half of the tubes were placed at 4° C. in the dark (unfixed). […]
Stained cells were analyzed by flow cytometry on a BD LSRII. For detection of PMA and compound 104.1 staining, samples were excited with the 488 nm laser, and the signal was detected in the PE-Texas Red channel. Flow cytometry data was analyzed using FlowJo software from […]. […]

[7] = test system: Staphylococcus aureus; settings: samples collected by swabbing from surfaces; cited from earlier work
[8] = test system: Salmonella serovar Enteritidis; settings: cited from earlier work
[9] = test system: Jurkat cells; test: Viability staining of live and heat-killed Jurkat cells, fluorescence microscopy; assay type: cell-based, human; settings: Cy3 filter
Protocol: 1:1 mixtures of live and heat-killed Jurkat cells were prepared and treated with PMA, as described in Example 21. The cells were transferred to a black optical bottom 96-well plate and imaged on an Olympus IX71 inverted fluorescence microscope using a Cy3 filter cube and Retiga 2000R Fast 1394 digital CCD camera with 300 msec exposure time. Imaging results are provided in FIG. 7A-D. The stained cells were either left unfixed (FIGS. 7A and B) or fixed and permeabilized (FIGS. 7C and D). Fluorescence images (FIGS. 7A and C) show stained cells, while merged fluorescence/phase contrast images (FIGS. 7B and D) show stained and unstained cells.

[10] = test system: Mycobacterium avium subspecies paratuberculosis (MAP); settings: PMA qPCR; cited from earlier work
[11] = test system: relatively short amplicons; settings: cited from earlier work

SMILES	dCt, effect on dead cells ([1]; heat-killed S. epidermidis, compared with PMA, FIG. 2B)	dCt, modification of DNA in live cells [1]	live/dead discrimination by dCt [2]	dCt, effect on dead cells ([3]; heat-killed S. enterica)	dCt, effect on live cells ([3]; live S. enterica)	dCt, effect on dead cells ([4]; heat-killed B. subtilis)	dCt, effect on live cells ([4]; live B. subtilis)	dCt, effect on dead cells ([5]; heat-killed E. coli)	dCt, effect on live cells ([5]; live E. coli)	staining of live and dead cells after fixation and permeabilization ([6]; 2% formaldehyde, 0.1% Triton X-100, FIG. 6B, 6D)	staining of live and dead cells, unfixed ([6]; unfixed cells, 488 nm laser, PE-Texas Red channel, FIG. 6A, 6C)	determination of amount of living cells [7]	suppression of qPCR signal from killed bacteria ([8]; killed Salmonella serovar Enteritidis)	entry of dye into viable cells ([8]; viable Salmonella serovar Enteritidis)	fluorescence discrimination of stained and unstained cells, fixed and permeabilized ([9]; fixed and permeabilized cells, FIG. 7C, 7D)	fluorescence discrimination of stained and unstained cells, unfixed ([9]; unfixed cells, FIG. 7A, 7B)	entry of dye into viable cells [10]	effect of PMA treatment on amplification of short amplicons [11]
C[N+](C)(C)CCNC(=O)CCOCCOCCOCCOCCNC(=O)CCCCC[n+]1c(-c2ccccc2)c2cc(N)ccc2c2ccc(N=[N+]=[N-])cc21 [Compound 014]	greater effect on dead cells	little to none; also recorded: less of an effect on live cells	showed a large difference between live and dead cells	greater effect on dead cells	less of an effect on live cells	greater effect on dead cells	less of an effect on live cells	greater effect on dead cells	less of an effect on live cells	–	–	–	–	–	–	–	–	–
[N-]=[N+]=Nc1ccc2c3ccc(N)cc3c(-c3ccccc3)[n+](CCCCCC(=O)NCCOCCOCCOCCOCCC(=O)N[C@@H](CS(=O)(=O)[O-])C(=O)O)c2c1 [Compound 020]	–	little to none	–	–	–	–	–	–	–	–	–	–	–	–	–	–	–	–
CC[N+](C)(CC)CCC[n+]1c(-c2ccccc2)c2cc(N=[N+]=[N-])ccc2c2ccc(N)cc21 [PMA, propidium monoazide]	–	causes some modification of DNA	did not function well to discriminate live and dead	–	–	–	–	–	–	increase in staining of live cells (loss of specificity)	bright, specific staining of dead cells	does not allow the determination of amount of living cells	ineffective in suppressing qPCR signal from the killed bacteria	found to enter viable Salmonella serovar Enteritidis	PMA staining is retained after fixation, with clear discrimination between PMA-positive and PMA-negative cells	greater difference in fluorescence intensity between PMA-positive and PMA-negative cells	found to enter viable MAP	not affected by PMA treatment
